Assay results from US20210277246A1, “PROBE FOR DETECTING CARBAPENEM-RESISTANT BACTERIA AND USE THEREOF” (priority 2018, published 2021).

What was measured:
Experiment in all cases: MIC of carbapenems for isolates
Assay type in all cases: cell-based
[1] = tested on: Enterobacter amnigenus (non-CP-CRE); conditions: Lelliottia amnigena, 4 isolates
[2] = tested on: Klebsiella pneumoniae (VIM); conditions: 1 isolate
[3] = tested on: Klebsiella pneumoniae (non-CP-CRE); conditions: 22 isolates
[4] = tested on: Klebsiella pneumoniae (NDM); conditions: 1 isolate
[5] = tested on: Morganella morganii (NDM); conditions: 1 isolate
[6] = tested on: Escherichia coli (non-CP-CRE); conditions: 8 isolates
[7] = tested on: Citrobacter freundii (NDM); conditions: 1 isolate
[8] = tested on: Klebsiella pneumoniae (NDM/OXA); conditions: NDM/OXA co-producing, 1 isolate
[9] = tested on: Klebsiella pneumoniae (non-producer); conditions: 21 isolates
[10] = tested on: Escherichia coli (ESBL-producer, CTX-M); conditions: 29 isolates
Escherichia coli (OXA) = conditions: 3 isolates
[11] = tested on: Enterobacter cloacae (NDM); conditions: 2 isolates
[12] = tested on: Klebsiella pneumoniae (ESBL-producer, CTX-M); conditions: 24 isolates
Escherichia coli (KPC) = conditions: 3 isolates
[13] = tested on: Klebsiella pneumoniae (KPC/OXA); conditions: KPC/OXA co-producing, 2 isolates
[14] = tested on: Klebsiella pneumoniae (OXA); conditions: 2 isolates
Klebsiella oxytoca (VIM) = conditions: 1 isolate
[15] = tested on: Escherichia coli (non-producer); conditions: 32 isolates
Klebsiella oxytoca (KPC) = conditions: 1 isolate
[16] = tested on: Klebsiella pneumoniae (GES); conditions: 1 isolate
[17] = tested on: Citrobacter freundii (OXA); conditions: 1 isolate
[18] = tested on: Citrobacter freundii (non-CP-CRE); conditions: 1 isolate
[19] = tested on: Klebsiella aerogenes (KPC); conditions: 1 isolate
Escherichia coli (NDM) = conditions: 4 isolates
Escherichia coli (IMP) = conditions: 1 isolate
[20] = tested on: Citrobacter freundii (KPC); conditions: 1 isolate
[21] = tested on: Enterobacter cloacae (VIM); conditions: 1 isolate

With C[C@@H](O)[C@H]1C(=O)N2C(C(=O)O)=C(SCCN=CN)C[C@H]12 [IPM, imipenem] the MIC [1] was 8 to 16 µg/mL, the MIC [2] was > 16 µg/mL and the MIC [3] was 0.5 to 16 µg/mL. For the same molecule, the MIC [4] was > 16 µg/mL, the MIC [5] was > 16 µg/mL and the MIC [6] was 0.5 to 16 µg/mL. The MIC [7] was 8 µg/mL, the MIC [8] was 4 µg/mL and the MIC [9] was 0.25 to 1 µg/mL. For the same molecule, the MIC [10] was 0.25 to 1 µg/mL, the MIC (Escherichia coli (OXA)) was 0.5 to 8 µg/mL and the MIC [11] was > 16 µg/mL. It also gave an MIC [12] of 0.25 to 1 µg/mL, an MIC (Escherichia coli (KPC)) of 2 to 8 µg/mL and an MIC [13] of 4 to 16 µg/mL. For the same molecule, the MIC [14] was 2 to 4 µg/mL, the MIC (Klebsiella oxytoca (VIM)) was 2 µg/mL and the MIC [15] was 0.25 to 0.5 µg/mL. For the same molecule, the MIC (Klebsiella oxytoca (KPC)) was > 16 µg/mL, the MIC [16] was > 16 µg/mL and the MIC [17] was 2 µg/mL. The MIC [18] was 1 µg/mL, the MIC [19] was > 16 µg/mL and the MIC (Escherichia coli (NDM)) was 8 to 16 µg/mL. The MIC (Escherichia coli (IMP)) was 1 µg/mL, the MIC [20] was > 16 µg/mL and the MIC [21] was 4 µg/mL.
